Measurements taken from EP0048168A2, “7-Acylamino cephalosporin compounds, their preparation and pharmaceutical formulations containing them” (ELI LILLY AND COMPANY, priority 1980, dated 1982).
≈ marks a conversion by molar mass, not a printed value. Like-named read-outs stand apart in the source and are kept apart here.

Columns and labels:
Assay in all cases: In vitro antibacterial activity, agar dilution technique using serial dilution
Assay type in all cases: cell-based
[1] = system: Bordetella bronchoseptica; conditions: Bordetella bronchoseptica strain 16; read-out: Minimum Inhibitory Concentration
Method: (§1) The antibacterial activity of the compounds of the invention is illustrated by the in vitro activity of a preferred compound, 7β-[α-methoxyimino-α-(2-amino-1,3-thiazol-4-yl)acetamido]-3-(1-cyanomethyl-1H-tetrazol-5-ylthiomethyl)-3-cephem-4-carboxylic acid, against a wide spectrum of microorganisms. The activity was determined by the agar dilution technique using serial dilution.

Citrobacter freundii = Citrobacter freundii strain CF17; read-out: Minimum Inhibitory Concentration
Method: as §1

Enterobacter aerogenes = conditions: Klebsiella aerogenes, read-out: Minimum Inhibitory Concentration
Method: as §1

Enterobacter cloacae = system: Enterobacter cloacae
Method: as §1

Escherichia coli = system: Escherichia coli
Method: as §1

Haemophilus influenzae = conditions: read-out: Minimum Inhibitory Concentration
Method: as §1

Klebsiella sp. = Klebsiella sp. strain KAE; read-out: Minimum Inhibitory Concentration
Method: as §1

Proteus inconstans = conditions: Providencia alcalifaciens; Proteus inconstans strain PR33; read-out: Minimum Inhibitory Concentration
Method: as §1

Proteus morganii = conditions: Morganella morganii; Proteus morganii strain PR15; read-out: Minimum Inhibitory Concentration
Method: as §1

Proteus rettgeri = conditions: Providencia rettgeri
Method: as §1

Pseudomonas aeruginosa = system: Pseudomonas aeruginosa
Method: as §1

Salmonella sp. = system: Salmonella sp.
Method: as §1

Serratia marcescens = system: Serratia marcescens
Method: as §1

Shigella sonnei = Shigella sonnei strain N9; read-out: Minimum Inhibitory Concentration
Method: as §1

Staphylococcus aureus = system: Staphylococcus aureus
Method: as §1

[2] = system: Staphylococcus epidermidis
Method: as §1

Streptococcus Group A = Streptococcus Group A strain C203; read-out: Minimum Inhibitory Concentration
Method: as §1

Streptococcus Group D = conditions: read-out: Minimum Inhibitory Concentration
Method: as §1

Streptococcus pneumoniae = Streptococcus pneumoniae strain Park; read-out: Minimum Inhibitory Concentration
Method: as §1

CO/N=C(\C(=O)N[C@@H]1C(=O)N2C(C(=O)O)=C(CSc3nnnn3CC#N)CS[C@H]12)c1csc(N)n1 [syn 7β-[α-Methoximino-α-(2-amino-1,3-thiazol-4-yl)-acetamido]-3-(1-cyanomethyl-1H-tetrazol-5-ylthiomethyl)-3-cephem-4-carboxylic acid]
MIC [1]: 64 µg/mL (≈ 119 µM) | MIC (Citrobacter freundii): 8 µg/mL (≈ 14.9 µM) | MIC (Enterobacter aerogenes; Enterobacter aerogenes strain EB17): 0.25 µg/mL (≈ 0.466 µM) | MIC (Enterobacter aerogenes; Enterobacter aerogenes strain X68): 0.06 µg/mL (≈ 0.112 µM) | MIC (Enterobacter aerogenes): 0.125 µg/mL (≈ 0.233 µM) | MIC (Enterobacter cloacae; Enterobacter cloacae strain 265A, read-out: Minimum Inhibitory Concentration): 32 µg/mL (≈ 59.6 µM) | MIC (Enterobacter cloacae; Enterobacter cloacae strain EB5, read-out: Minimum Inhibitory Concentration): 1 µg/mL (≈ 1.86 µM) | MIC (Escherichia coli; Escherichia coli strain EC14, read-out: Minimum Inhibitory Concentration): 0.06 µg/mL (≈ 0.112 µM) | MIC (Escherichia coli; Escherichia coli strain N10, read-out: Minimum Inhibitory Concentration): 0.25 µg/mL (≈ 0.466 µM) | MIC (Escherichia coli; Escherichia coli strain TEM, read-out: Minimum Inhibitory Concentration): 0.06 µg/mL (≈ 0.112 µM) | MIC (Haemophilus influenzae; Haemophilus influenzae strain 76, resistant strain of H. influenzae): 0.015 µg/mL (≈ 0.028 µM) | MIC (Haemophilus influenzae; Haemophilus influenzae strain C.L., sensitive strain of H. influenzae): 0.03 µg/mL (≈ 0.0559 µM) | MIC (Klebsiella sp.): 2 µg/mL (≈ 3.73 µM) | MIC (Proteus inconstans): 0.125 µg/mL (≈ 0.233 µM) | MIC (Proteus morganii): 0.06 µg/mL (≈ 0.112 µM) | MIC (Proteus rettgeri; read-out: Minimum Inhibitory Concentration, Proteus rettgeri strain C24): 0.125 µg/mL (≈ 0.233 µM) | MIC (Proteus rettgeri; Proteus rettgeri strain PR7, read-out: Minimum Inhibitory Concentration): 0.06 µg/mL (≈ 0.112 µM) | MIC (Pseudomonas aeruginosa; Pseudomonas aeruginosa strain Ps18, read-out: Minimum Inhibitory Concentration): 32 µg/mL (≈ 59.6 µM) | MIC (Pseudomonas aeruginosa; Pseudomonas aeruginosa strain X239, read-out: Minimum Inhibitory Concentration): 16 µg/mL (≈ 29.8 µM) | MIC (Pseudomonas aeruginosa; Pseudomonas aeruginosa strain X528, read-out: Minimum Inhibitory Concentration): 16 µg/mL (≈ 29.8 µM) | MIC (Salmonella sp.; Salmonella sp. strain 1335, read-out: Minimum Inhibitory Concentration): 0.5 µg/mL (≈ 0.932 µM) | MIC (Salmonella sp.; Salmonella sp. strain X514, read-out: Minimum Inhibitory Concentration): 0.125 µg/mL (≈ 0.233 µM) | MIC (Serratia marcescens; Serratia marcescens strain 3E3, read-out: Minimum Inhibitory Concentration): 0.25 µg/mL (≈ 0.466 µM) | MIC (Serratia marcescens; Serratia marcescens, read-out: Minimum Inhibitory Concentration, Serratia marcescens strain X93): 0.125 µg/mL (≈ 0.233 µM) | MIC (Shigella sonnei): 0.125 µg/mL (≈ 0.233 µM) | MIC (Staphylococcus aureus; Staphylococcus aureus strain V41, read-out: Minimum Inhibitory Concentration): 4 µg/mL (≈ 7.45 µM) | MIC (Staphylococcus aureus; Staphylococcus aureus strain X1.1, read-out: Minimum Inhibitory Concentration): 1 µg/mL (≈ 1.86 µM) | MIC (Staphylococcus aureus; Staphylococcus aureus strain X400, read-out: Minimum Inhibitory Concentration): 32 µg/mL (≈ 59.6 µM) | MIC (Staphylococcus aureus; read-out: Minimum Inhibitory Concentration): 8 µg/mL (≈ 14.9 µM) | MIC ([2]; Staphylococcus epidermidis strain EPI1, read-out: Minimum Inhibitory Concentration): 4 µg/mL (≈ 7.45 µM) | MIC ([2]; Staphylococcus epidermidis strain EPI2, read-out: Minimum Inhibitory Concentration): 8 µg/mL (≈ 14.9 µM) | MIC (Streptococcus Group A): 0.015 µg/mL (≈ 0.028 µM) | MIC (Streptococcus Group D; Streptococcus Group D strain 9960): 128 µg/mL (≈ 239 µM) | MIC (Streptococcus Group D; Streptococcus Group D strain X66): > 128 µg/mL | MIC (Streptococcus pneumoniae): 0.03 µg/mL (≈ 0.0559 µM)
